Reference: patent US20250281419A1, “LIPID AMINES” (ModernaTX, Inc., priority 2021, published 2025)

How the values were obtained:
HeLa cells [1] = experiment: CFTR protein expression assay in HeLa cells (LNPs analogous to Example 4, lipid amine post-added); format: cell-based, Human; settings: LNP prepared analogous to Example 4 with CFTR mRNA, vs buffer (PBS) control, 5 hr transfection, 24 hr incubation, N=4 wells
Description: Lipid nanoparticle compositions were prepared in a manner analogous to that in example 4. To evaluate LNP cellular uptake and protein expression In Vitro, HeLa cells from ATCC.org (ATCC CCL-2) was used. The cells were cultured in complete Minimum Essential Medium (MEM) and were plated in 96 well Cell Carrier Ultra plate with PDL coated surface (PerkinElmer) prior to running an experiment.
Buffer control (PBS) and LNPs encapsulating cystic fibrosis transmembrane conductance regulator (CFTR) mRNA were dosed with MEM media in the absence of serum (N=4 replicate wells). LNP transfected cells were incubated for 5 hr, followed by media removal and supplementation with complete MEM media. Cells were further incubated in complete MEM media overnight (24 hr).
Following 24 hr incubation, the cells were fixed with PFA and processed for immunofluorescence (IF) using an anti-CFTR rabbit monoclonal antibody. Briefly, the cells were permeabilized with 0.5% TX-100 for 10 min, blocked with 3% bovine serum albumin (BSA)+PBST for 1 hr at room temperature, and incubated with primary anti-CFTR monoclonal antibody overnight at 4° C. […] Cells were imaged using Opera Phoenix spinning disk confocal microscope (PerkinElmer), and CFTR protein expression was detected using the 488 nm channel. […]

[2] = CFTR mRNA nanoparticle biophysical data (DLS, Ribogreen); format: physicochemical
Description: Lipids were dissolved in ethanol at a concentration of 24 mg/mL and molar ratios of 49.0:11.2:39.3:0.5 (IL1:DSPC:cholesterol:PEG-DMG-2K) and mixed with the acidification buffer (45 mM acetate buffer at pH 4). The lipid solution and acidification buffer were mixed using a multi-inlet vortex mixer at a 3:7 volumetric ratio of lipid:buffer for mixer 1 and mixer 2 and a 1:3 volumetric ratio of lipid:buffer (25% ethanol) for mixer 3. After a 5 second residence time, the resulting nanoparticles were mixed with 55 mM sodium acetate at pH 5.6 at a volumetric ratio of 5:7 of nanoparticle: buffer. See Table 4a for mixing parameters. The resulting dilute nanoparticles were then buffer exchanged and concentrated using tangential flow filtration (TFF) into a final buffer containing 5 mM sodium acetate pH 5.0. Then a 70% sucrose solution in 5 mM acetate buffer at pH 5 is subsequently added.
The resulting nanoparticles at a lipid concentration of 7.33 mg/mL in 5 mM acetate (pH 5) and 75 g/L sucrose were mixed with mRNA (luciferase or CFTR) at a concentration of 0.625 mg/mL in 42.5 mM sodium acetate pH 5.0, with N: P of 4.93. The nanoparticle solution and […] were mixed using a multi-inlet vortex mixer at a 3:2 volumetric ratio of nanoparticle:mRNA. Once loaded with mRNA, these intermediate nanoparticles underwent a 300 second residence time prior addition of neutralization buffer containing 120 mM TRIS pH 8.12 at a volumetric ratio of 5:1 of nanoparticle: buffer.
For HeLa studies evaluating CFTR protein expression, the intermediate nanoparticle formulation (1 mL, 0.415 mg mRNA) is mixed with a buffer containing 20 mM TRIS (pH 7.5), 0.9 mg/mL PEG-DMG-2K and lipid amine SA52 (647.1 nmol) at a volumetric ratio of 6:1 of nanoparticle: buffer. The resulting nanoparticle suspension underwent concentration using a centrifugal filtration device (100 kDa molecular weight cut-off) and was diluted in running buffer (20 mM TRIS, 14.3 mM sodium acetate, and 32 g/L sucrose, pH 7.5) with a 300 mM NaCl solution to a final buffer matrix containing 70 mM NaCl. […]

HeLa cells [3] = experiment: CFTR protein expression assay in HeLa cells (LNPs of Example 2, immunofluorescence); format: cell-based, Human; settings: compared to buffer (PBS) control, 5 h transfection, 24 h incubation, N=4 wells
Description: Lipid nanoparticles were prepared using ethanol drop nanoprecipitation followed by solvent exchange into suitable aqueous buffer using dialysis. An exemplary lipid nanoparticle composition can be prepared by a process where lipids are dissolved in ethanol at a concentration of 12.5 mM and molar ratios of 33:15:11:39.5:1.5 (e.g., ionizable lipid:SA46:phospholipid:cholesterol:PL1). Lipid to mRNA is maintained at a N/P ratio of 4.9. Then mRNA is diluted with 25 mM sodium acetate (pH 5.0) and combined with the lipid mixture at a volume ratio of 3:1 (aqueous: ethanol). Resulting formulations are dialyzed against 20 mM tris/8% sucrose/70 mM sodium chloride (pH 7.4) at a volume of 300 times that of the primary product using Slide-A-Lyzer dialysis cassettes (Thermo Scientific, Rockford, IL, USA) with a molecular cutoff of 10 KDa for at least 18 h. The first dialysis is carried out at room temperature in a digital orbital shaker (VWR, Radnor, PA, USA) at 85 rpm for 3 h and then dialyzed overnight at 4° C. Formulations are concentrated using Amicon ultra-centrifugal filters (EMD Millipore, Billerica, MA, USA), passed through a 0.22-μm filter and stored at 4° C. until use. Lipid nanoparticle solutions are typically adjusted to specific mRNA concentrations between 0.1 and 1 mg/mL. LNPs were prepared according to Example 2. To evaluate LNP cellular uptake and protein expression in vitro, HeLa cells from ATCC.org (ATCC CCL-2) are used. The cells are cultured in complete Minimum Essential Medium (MEM) and are plated in 96 well Cell Carrier Ultra plate with PDL coated surface (PerkinElmer) prior to running an experiment. Buffer control (PBS) and LNPs encapsulating cystic fibrosis transmembrane conductance regulator (CFTR) mRNA were dosed with MEM media in the absence of serum (N=4 replicate wells). LNP transfected cells were incubated for 5 h, followed by media removal and supplementation with complete MEM media. Cells were further incubated in complete MEM media overnight (24 h). Following 24 hr incubation, the cells were fixed with PFA and processed for immunofluorescence (IF) using an anti-CFTR rabbit monoclonal antibody. Briefly, the cells were permeabilized with 0.5% TX-100 for 10 min, blocked with 3% bovine serum albumin (BSA)+PBST for 1 hr at room temperature, and incubated with primary anti-CFTR monoclonal antibody overnight at 4° C. Following primary antibody incubation, the cells were incubated with Alexa 488 conjugated secondary antibody for 30 min, and stained with DAPI and HCS CellMask Blue stain. Between different incubation steps the cells were either washed with PBS or PBST. Cells were imaged using Opera Phoenix spinning disk confocal microscope (PerkinElmer), and CFTR protein expression was detected using the 488 nm channel. The image analysis was performed in Harmony 4.9, with main analysis output being CFTR intensity per cell. The results shown in Table 3a show fold-change in CFTR signal intensity per cell compared to buffer (PBS) control (nanoparticle composition: IL1:Lipid Amine:DSPC:Chol:PL1). The results shown in Table 3b show fold-change in CFTR signal intensity per cell compared to buffer (PBS) control (nanoparticle composition: IL1:Lipid Amine:DPPC:Chol:PL1).

CC(C)CCC[C@@H](C)[C@H]1CC[C@H]2[C@@H]3CC=C4C[C@@H](OC(=O)CCC(=O)N5CCN(C)CCN(C)CC5)CC[C@]4(C)[C@H]3CC[C@]12C [SA52, (3S,8S,9S,10R,13R,14S,17R)-10,13-Dimethyl-17-((R)-6-methylheptan-2-yl)-2,3,4,7,8,9,10,11,12,13,14,15,16,17-tetradecahydro-1H-cyclopenta[a]phenanthren-3-yl 4-(4,7-dimethyl-1,4,7-triazonan-1-yl)-4-oxobutanoate]
Average fold-change in CFTR signal intensity per cell compared to buffer control ± standard deviation (HeLa cells [1]): 3.4 ± 0.5 fold-change | Diameter ([2]; CFTR mRNA nanoparticle with lipid amine (IL1:DSPC:cholesterol:PEG-DMG-2K core), DLS): 72.4 nm | PDI ([2]; CFTR mRNA nanoparticle with lipid amine, DLS): 0.11 | % Encapsulation (Ribogreen) ([2]; CFTR mRNA nanoparticle with lipid amine, Ribogreen assay): 96.6% | Average fold-change in CFTR signal intensity per cell ± standard deviation (HeLa cells [3]; LNP IL1:Lipid Amine:DPPC:Chol:PL1 with CFTR mRNA): 9.3 ± 1.2 fold-change | Average fold-change in CFTR signal intensity per cell ± standard deviation (HeLa cells [3]; LNP IL1:Lipid Amine:DSPC:Chol:PL1 with CFTR mRNA): 2.3 ± 0.1 fold-change
